Counter-ions that a name gives are not always drawn.
Biological target: T1, human 5-HT6 receptor (Homo sapiens, UniProt P50406)
T1 construct: host or cells: CHO-K1 cells, stably transfected; membranes prepared in house
Test: Human 5-HT6 Receptor Binding Assay ([3H]LSD displacement, scintillation beads)
Settings: membranes of CHO-K1 cells with recombinant human 5-HT6, 4 nM [3H]LSD; Table 1, class symbols; read-out: h5-HT6 (Ki)

T1 sequence (P50406 whole entry): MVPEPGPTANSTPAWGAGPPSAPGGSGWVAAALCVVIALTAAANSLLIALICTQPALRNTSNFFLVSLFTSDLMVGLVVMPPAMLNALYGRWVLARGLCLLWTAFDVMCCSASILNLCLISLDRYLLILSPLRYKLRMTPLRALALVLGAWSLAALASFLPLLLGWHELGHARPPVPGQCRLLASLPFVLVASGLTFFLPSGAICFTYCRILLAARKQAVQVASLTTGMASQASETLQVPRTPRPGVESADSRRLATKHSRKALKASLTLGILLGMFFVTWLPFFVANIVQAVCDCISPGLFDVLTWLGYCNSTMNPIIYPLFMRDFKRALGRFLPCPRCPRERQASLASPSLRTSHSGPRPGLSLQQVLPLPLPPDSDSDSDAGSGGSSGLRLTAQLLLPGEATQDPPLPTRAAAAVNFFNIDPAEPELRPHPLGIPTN

| SMILES | Ki [nM] |
| --- | --- |
| CC12CCNCC1Oc1ccc(OS(=O)(=O)c3cccc(Cl)c3)cc12 (stereo not shown) [Example 762] | > 1000 |
| O=S(=O)(NCc1ccc(Cl)cc1)c1ccc2c(c1)C1CCNCC1O2 (stereo not shown) [Example 854] | > 1000 |
| COc1ccccc1NS(=O)(=O)c1ccc2c(c1)C1CCNCC1O2 (stereo not shown) [Example 841] | > 1000 |
| CC12CCNCC1Oc1ccc(OS(=O)(=O)c3ccccc3)cc12 (stereo not shown) [Example 759] | > 1000 |
| Cc1ccc(S(=O)(=O)c2ccc3oc4c(c3c2)CCNC4)cc1 [Example 252] | < 500 |
| CC1(C)NCCc2c1oc1cc(S(=O)(=O)c3cncc(F)c3)ccc21 [Example 381] | < 500 |
| Cc1c(Cl)cccc1S(=O)(=O)Oc1ccc2c(c1)C1CCNCC1O2 (stereo not shown) [Example 717] | < 500 |
| CC12CCNCC1Oc1cc(S(=O)(=O)c3cccc4c3OCCO4)ccc12 (stereo not shown) [Example 468] | < 500 |
| CCOc1cccc(S(=O)(=O)c2ccc3c(c2)OC2CNCCC32C)c1 (racemic) [Example 10, 7-[(3-ethoxyphenyl)sulfonyl]-4a-methyl-1,2,3,4,4a,9a-hexahydro[1]benzofuro[2,3-c]pyridine] | < 500 |
| O=S(=O)(c1cccc(OC(F)(F)F)c1)c1ccc2c(c1)OC1CNCCC21 (stereo not shown) [Example 166, 7-{[3-(trifluoromethoxy)phenyl]sulfo-nyl}-1,2,3,4,4a,9a-hexahydro[1]benzofuro[2,3-c]pyridine] | < 500 |
| COc1ccccc1S(=O)(=O)c1ccc2c(c1)OC1CNCCC21C (racemic) [Example 3, 7-[(2-methoxyphenyl)sulfonyl]-4a-methyl-1,2,3,4,4a,9a-hexahydro[1]benzofuro[2,3-c]pyridine] | < 500 |
| CC12CCNCC1Oc1ccc(OS(=O)(=O)Cc3ccc(F)cc3)cc12 (stereo not shown) [Example 790] | > 1000 |
| O=S(=O)(Oc1ccc2c(c1)OC1CNCCC21)c1cccc(C(F)(F)F)c1 (stereo not shown) [Example 675] | < 500 |
| CC12CCNCC1Oc1ccc(OS(=O)(=O)Cc3cccc(C(F)(F)F)c3)cc12 (stereo not shown) [Example 788] | < 500 |
| O=S(=O)(c1ccccc1)c1ccc2c(c1)OC1CN(C3CCCCC3)CCC21 (stereo not shown) [Example 610] | 500 to 1000 |
| O=S(=O)(Nc1ccc(Cl)cc1Cl)c1ccc2c(c1)C1CCNCC1O2 (stereo not shown) [Example 844] | > 1000 |
| [O-][S+](c1ccc2c(c1)OC1CNCCC21)c1cccnc1F (stereo not shown) [Example 383] | > 1000 |
| Cc1cccc([S+]([O-])c2ccc3c(c2)OC2CNCCC32)n1 (stereo not shown) [Example 327] | > 1000 |

| SMILES | Ki [nM] |
| --- | --- |
| COC(=O)c1cccc(S(=O)(=O)c2ccc3c(c2)OC2CNCCC32)c1 (stereo not shown) [Example 138] | > 1000 |
| O=S(=O)(c1ccncc1)c1ccc2c(c1)OC1CNCCC21 (stereo not shown) [Example 330] | > 1000 |
| CC12CCNCC1Oc1ccc(OS(=O)(=O)c3ccc(Oc4ccccc4)nc3)cc12 (stereo not shown) [Example 782] | > 1000 |
| CC12CCN(C3CCCCC3)CC1Oc1ccc(OS(=O)(=O)Cc3ccccc3)cc12 (stereo not shown) [Example 807] | > 1000 |
| O=S(=O)(c1cccc(Cl)c1)c1ccc2c3c(oc2c1)C1(CCOC1)NCC3 (stereo not shown) [Example 303] | < 500 |
| CC12CCNCC1Oc1ccc(S(=O)(=O)c3ccncc3)cc12 (racemic) [Example 13, 4a-methyl-6-(pyridin-4-ylsulfonyl)-1,2,3,4,4a,9a-hexahydro[1]benzofuro[2,3-c]pyridine] | > 1000 |
| Cn1cnc(COc2cccc(S(=O)(=O)c3ccc4c(c3)OC3CNCCC43)c2)n1 (stereo not shown) [Example 560] | > 1000 |
| O=S(=O)(c1cccc(OCC2CC2)c1)c1ccc2c(c1)OC1CNCCC21 (stereo not shown) [Example 555] | < 500 |
| COc1ccc(S(=O)(=O)c2ccc3c(c2)OC2CNCCC32C)cc1 (racemic) [Example 5, 7-[(4-methoxyphenyl)sulfonyl]-4a-methyl-1,2,3,4,4a,9a-hexahydro[1]benzofuro[2,3-c]pyridine] | 500 to 1000 |
| CC(C)Oc1cccc(S(=O)(=O)c2ccc3c(c2)OC2CNCCC32)c1 (stereo not shown) [Example 165] | < 500 |
| CC(=O)N(C)CC1NCCc2c1oc1cc(S(=O)(=O)c3cccc(Cl)c3)ccc21 (racemic) [Example 541, N-({7-[(3-chlorophenyl)sulfonyl]-1,2,3,4-tetrahydro[1]benzofuro[2,3-c]pyridin-1-yl}methyl)-N-methylacetamide] | < 500 |
| CC12CCNCC1Oc1cc(S(=O)(=O)c3ccccn3)ccc12 (racemic) [Example 8, 4a-methyl-7-(pyridin-2-ylsulfonyl)-1,2,3,4,4a,9a-hexahydro[1]benzofuro[2,3-c]pyridine] | > 1000 |
| O=S(=O)(c1ccccc1)c1ccc2c3c(oc2c1)CN(CCc1ccccc1)CC3 [Example 596] | < 500 |
| O=S(=O)(c1cccc(OC(F)(F)F)c1)c1ccc2c(c1)OC1CNCCC21 (stereo not shown) [Example 149, 7-{[3-(trifluoromethoxy)phenyl]sulfo-nyl}-1,2,3,4,4a,9a-hexahydro[1]benzofuro[2,3-c]pyridine] | < 500 |
| Nc1cccc(S(=O)(=O)c2ccc3c4c(oc3c2)CNCC4)c1 [Example 342] | < 500 |
| O=S(=O)(c1ccc(F)cc1)c1ccc2c(c1)OC1CNCCC21 (stereo not shown) [Example 134] | < 500 |
| O=S(=O)(c1cccc(OCCCO)c1)c1ccc2c(c1)OC1CNCCC21 (stereo not shown) [Example 568] | < 500 |

Further lines, results first:

| Ki [nM] | SMILES |
| --- | --- |
| < 500 | CN(C)c1cccc(S(=O)(=O)c2ccc3c4c(oc3c2)CNCC4)c1 [Example 347] |
| < 500 | COc1cc(OC(C)C)cc(S(=O)(=O)c2ccc3c(c2)OC2CN(C4CCC4)CCC32)c1 (stereo not shown) [Example 612] |
| < 500 | O=S(=O)(c1ccc2c(c1)OC1CNCCC21)c1cccc(F)c1F (stereo not shown) [Example 399] |
| < 500 | Cc1c(S(=O)(=O)Oc2ccc3c(c2)OC2CNCCC32)sc2ccc(Cl)cc12 (stereo not shown) [Example 797] |
| > 1000 | O=S(=O)(c1ccncc1)c1ccc2oc3c(c2c1)CCNC3 [Example 352] |
| > 1000 | O=S(=O)(Oc1ccc2c(c1)C1CCNCC1O2)c1cccc(F)c1 (stereo not shown) [Example 701] |
| < 500 | CC1(C)NCCc2c1oc1cc(S(=O)(=O)c3ccccc3)ccc21 [Example 292] |
| < 500 | O=S(=O)(c1cccc(F)c1)c1ccc2c3c(oc2c1)C1(CCC1)NCC3 [Example 25, 7-[(3-fluorophenyl)sulfonyl]-3,4-dihydro-2H-spiro[1-benzofuro[2,3-c]pyridine-1,1′-cyclobutane]] |
| < 500 | O=S(=O)(c1cccc(Cl)c1)c1ccc2c(c1)C1CCNCC1O2 (stereo not shown) [Example 294, 6-[(3-Chlorophenyl)sulfonyl]-1,2,3,4,4a,9a-hexahydro[1]benzofuro[2,3-c]pyridine trifluoroacetic acid salt] |
| < 500 | Cc1ccc(S(=O)(=O)Oc2ccc3c(c2)OC2CNCCC32)cc1 (stereo not shown) [Example 642] |
| < 500 | O=S(=O)(Oc1ccc2c(c1)OC1CNCCC21)c1cccc(F)c1 (stereo not shown) [Example 643] |
| < 500 | Cc1ccc(C)c(S(=O)(=O)Oc2ccc3c(c2)OC2CNCCC32)c1 (stereo not shown) [Example 647] |
| < 500 | [O-][S+](c1ccc(Cl)c(C(F)(F)F)c1)c1ccc2c3c(oc2c1)CNCC3 (stereo not shown) [Example 209] |
| < 500 | O=S(=O)(c1ccc2c(c1)OC1CNCCC21)c1ccc(Cl)c(C(F)(F)F)c1 (stereo not shown) [Example 148] |
| > 1000 | COc1ccc(S(=O)(=O)Nc2ccc3c(c2)C2CCNCC2O3)cc1 (stereo not shown) [Example 821] |
| < 500 | [O-][S+](c1ccc2c3c(oc2c1)CNCC3)c1cc(Cl)ccc1Cl (stereo not shown) [Example 214] |
| < 500 | O=S(=O)(c1cc(F)cc(OCC(F)(F)F)c1)c1ccc2c(c1)OC1CNCCC21 (stereo not shown) [Example 415] |

Reference: patent US8765779B2, “Tricyclic derivatives and their pharmaceutical use and compositions” (Cephalon, Inc., priority 2009, dated 2014)
